According to patent EP4707279A1, “SUBSTITUTED TRICYCLIC HETEROCYCLIC COMPOUND AS PHARMACEUTICAL FOR TREATMENT OR PREVENTION OF COVID-19” (priority 2023, dated 2024):

Test system: SARS-CoV-2
Test: CPE inhibition assay, anti-SARS-CoV-2 virus activity in vitro (Test Example 4)
Assay type: cell-based
Details: for inhibition at 10 µM: Severe acute respiratory syndrome coronavirus 2, VeroE6/TMPRSS2, 72 h, read-out: Anti SARS-CoV-2 activity; for Anti SARS-CoV-2 activity: CPE inhibition at 10 µM, VeroE6-TMPRSS2 cells, MOI 0.01, third day post infection, average of three tests

Row | Compound | inhibition at 10 µM [%] | Anti SARS-CoV-2 activity
1 | O=C(NCc1ccc2ccccc2c1)[C@@H]1CC[C@H]2N1C(=O)C1(Cc3ccccc3C1)N1C(=O)N(Cc3ccccc3)C(=O)N(Cc3ccccc3)C21O (stereo partly drawn) [Compound 21D, (9'S,11a'R)-1',3'-Dibenzyl-11b'-Hydroxy-N-(naphthalen-2-ylmethyl)-2',4',7'-trioxo-1,1',3,3',4',9',10',11',11a',1 1b'-decahydro-2'H,7'H-spiro[indene-2,6'-pyrrolo[2',1':3,4]pyrazino[1,2-a][1,3,5]triazine]-9'-carboxamide] | 1 to 5 | 
2 | COC(=O)[C@@H]1CCC[C@H]2N1C(=O)[C@@H](Cc1ccccc1)N1C(=O)N(Cc3ccccc3)C(=O)N(Cc3ccccc3)C21O (stereo partly drawn) [Compound 25A, Methyl (6R,9S,12aR)-1,3,6-tribenzyl-12b-hydroxy-2,4,7-trioxododecahydropyri do[2',1':3,4]pyrazino[1,2-a][1,3,5]triazine-9-carboxylate] | > 5 | 
3 | O=C(NCc1ccc2ccccc2c1)[C@H]1CCCC2=C3N(Cc4ccccc4)C(=O)N(Cc4ccccc4)C(=O)N3[C@H](Cc3ccccc3)C(=O)N21 [Compound 25E, (6R,9R)-1,3,6-Tribenzyl-N-(naphthalen-2-ylmethyl)-2,4,7-trioxo-1,2,3,4,6,7,9,10,11,12-decahydropyrido[2',1':3,4] pyrazino[1,2-a][1,3,5]triazine-9-carboxamide] | 1 to 5 | 
4 | CCOC(=O)[C@H]1CC[C@@H]2N1C(=O)[C@H](C(C)C)N1C(=O)N(Cc3ccccc3)C(=O)N(Cc3ccccc3)[C@@]21O [Compound 26A, Ethyl (6S,9R,11aS,11bS)-1,3-dibenzyl-11b-hydroxy-6-isopropyl-2,4,7-trioxodecahydro-2H-pyrrolo[2',1':3,4]pyrazi no[1,2-a][1,3,5] triazine-9-carboxylate] | > 5 | 
5 | CCOC(=O)[C@@H]1CC[C@H]2N1C(=O)[C@@H](C(C)C)N1C(=O)N(Cc3ccco3)C(=O)N(Cc3ccco3)[C@]21O [Compound 28A, Ethyl (6R,9S,11aR,11bR)-1,3-bis(furan-2-ylmethyl)-11b-hydroxy-6-isopropyl-2,4,7-trioxodecahydro-2H-pyrrolo[2',1':3,4] pyrazino[1,2-a][1,3,5] triazine-9-carboxylate] | > 5 | 
6 | CC(C)[C@@H]1C(=O)N2[C@H](C(=O)NCc3cnc4ccccc4c3)CC[C@@H]2[C@@]2(O)N(Cc3ccco3)C(=O)N(Cc3ccco3)C(=O)N12 [Compound 28F, (6R,9S,11aR,11bR)-1,3-bis(2-furylmethyl)-11b-hydroxy-6-isopropyl-2,4,7-trioxo-N-(3-quinolylmethyl)decahydro-2H-pyrrolo[2',1':3,4]pyrazino[1,2-a][1,3,5]triazine-9-carboxamide] | > 5 | 
7 | CCOC(=O)[C@@H]1CC[C@H]2N1C(=O)[C@@H](CC)N1C(=O)N(Cc3ccccc3)C(=O)N(Cc3ccccc3)[C@]21O [Compound 29A, Ethyl (6R,9S,11aR,11bR)-1,3-dibenzyl-6-ethyl-11b-hydroxy-2,4,7-trioxodecahydro-2H-pyrrolo[2',1':3,4]pyrazi no[1,2-a][1,3,5] triazine-9-carboxylate] | > 5 | 
8 | CC[C@@]1(C(C)C)C(=O)N2[C@H](C(=O)NCc3ccc4ccccc4c3)CC[C@@H]2[C@@]2(O)N(Cc3ccccc3)C(=O)N(Cc3ccccc3)C(=O)N21 [Compound 29D, (6R,9S,11aR,11bR)-1,3-Dibenzyl-6-ethyl-11b-hydroxy-6-isopropyl-N-(naphthalen-2-ylmethyl)-2,4,7-trioxodecahydro-2H-pyrrolo[2',1':3,4] pyrazino[1,2-a][1,3,5] triazine-9-carboxamide] | > 5 | 
9 | (6 R,9 S,11aR,11bR)-1,3-Dibenzyl-N-(bicyclo[1,1,1]penta n-1-yl) 11b-Hydroxy-6-isopropyl-2,4,7-trioxodecahydro- 2H-pyrrolo [2",1":3,4]pyrazino[ 1,2-a][1,3,5] triazine-9-carboxamide [Compound 3I] |  | A (a CPE inhibition effect of 5% or more)
10 | (6R,9S,10aR)-1,3,6-tribenzyl-10b-hydroxy-N-(naphthalen-2-ylmethyl)-2,4,7-trioxodecahydroazeto[2',1 ':3,4]pyrazino[1.2-a][1,3,5]triazine-9-carboxamide [Compound 20D] |  | A (a CPE inhibition effect of 5% or more)
11 | (6R,9S,11aR)-11b-Hydroxy-6-isopropyl-N-(naphthalen-2-ylmethyl)-2,4,7-trioxo-1,3-bis(thien-2-ylmethyl)decahydro- 2H-pyrrolo[2',1':3,4] pyridazine[1,2-a][1,3,5] triazine-9-carboxamide [Compound 27D] |  | A (a CPE inhibition effect of 5% or more)
12 | (6R,9S,11aR,11bR)-1,3-Dibenzyl-9-(4-fluoroisoindolin-2-carbonyl)-11b-hydroxy-6-isopropylhexahydro -2H-pyrrolo[2',1':3,4]pyri dazino[1,2-a][1,3,5] triazine-2.4. 7(3H.6H)-trione [Compound 3J] |  | A (a CPE inhibition effect of 5% or more)
13 | (6R,9S,11aR,11bR)-1,3-Dibenzyl-11b-hydroxy-6-(4 -methoxybenzyl)-N-(naphthalen-2-ylmethyl)-2,4,7-trioxodecahydro-2H-pyrrolo[2',1':3,4] pyridazino[1,2-a][1.3.5] triazine-9-carboxamide [Compound 6D] |  | B (a CPE inhibition effect of less than 5% but 1% or more)
14 | (6R,9S,11aR,11bR)-1,3-Dibenzyl-11b-hydroxy-6-isopropyl-2,4,7-trioxo-phenyl-deca-hydro-2H-pyrrolo [2',1':3,4]pyrazino[1, 2-a][1,3,5]triazine-9-carboxamide [Compound 3G] |  | A (a CPE inhibition effect of 5% or more)
15 | (6R,9S,11aR,11bR)-1,3-Dibenzyl-11b-hydroxy-6-isopropyl-N-(naphthalen-2-ylmethyl)-2,4,7-trioxodecahydro-2H-pyrrolo[ 2',1':3,4]pyrazino[1,2-a] [1,3,5]triazine^-9^-carbamide [Compound 3D] |  | A (a CPE inhibition effect of 5% or more)
16 | (6R,9S,11aR,11bR)-1,3-Dibenzyl-11b-hydroxy-N,6-bis(naphthalen-2-ylmethyl)-2.4.7-trioxodecahydro-2H-pyrrolo[2'.1':3,4] pyrazino[1,2-a][1,3,5] triazine-9-carboxamide [Compound 7D] |  | B (a CPE inhibition effect of less than 5% but 1% or more)
17 | (6R,9S,11aR,11bR)-1,3-bis(furan-2-ylmethyl)-11b-hydroxy-6-isopropyl-N-(naphthalen-2-ylmethyl)-2,4,7-trioxodecahydro-2H-pyrrolo[2',1':3,4]pyridazin e[1,2-a] [1,3,5]triazine-9-carboxamide [Compound 28D] |  | A (a CPE inhibition effect of 5% or more)
18 | (6R,9S,11aR,11bR)-6-benzyl-11b-hydroxy-N-(naphthalen-2-ylmethyl)-2 ,4,7-trioxo-1,3-bis (thien-2-ylmethyl) decahydro-2H-pyrrolo [2',1':3,4]pyridazino[1,2-a] [1.3,5]triazine-9-carboxamide [Compound 18D] |  | C (less than 1%)
19 | (6R,10R,11aR)-1.3,6-tribenzyl-10-(benzyl oxy)-11b-hydroxyhexahydro-2H-pyrrolo [2',1':3,4]pyrazino[1,2-a][1.3,5] triazine-2,4,7(3H.6H)-trione [Compound 15A] |  | C (less than 1%)
20 | (6R,10R.11aS)-1,3.6-tribenzyl-10-(benzyl oxy)-11b-hydroxyhexahydro-2H-pyrrolo [2',1':3,4]pyridazino[1,2-a][1,3,5 triazine-2,4,7(3H.6H)-trione [Compound 14A] |  | B (a CPE inhibition effect of less than 5% but 1% or more)
21 | (6R.9S)-1.3-benzyl-6-(4-fluorobenzyl)-N-(naphthalen-2-ylmethyl)-2, 4,7-trioxo-1,3,4,6,7,9,10,11-octahydro-2H-pyrrolo [2',1':3,4]pyridazine [1,2-a][1,3,5]triazine-9-carboxamide [Compound 5E] |  | C (less than 1%)
22 | (6R.9S.11aR.11bR)-1,3-Dibenzyl-6-(4-fluorobenzyl)-11b-hydroxy-N-(naphthalen-2-yl methyl)-2,4,7-trioxodecahydro-2H-pyrrolo[2',1':3,4]pyridazine [1,2-a][1,3,5]triazine-9-carboxamide [Compound 5D] |  | A (a CPE inhibition effect of 5% or more)
23 | (6R.11aR)-1,3,6-tribenzyl-11b-hydroxy-11a-methylhexahydro-2H-pyrrolo[2',1':3,4] pyrazino[1,2-a][1,3,5] triazine-2,4,7(3H,6H)-trione [Compound 19A] |  | A (a CPE inhibition effect of 5% or more)
24 | (6S,9R,11aS,11bS)-1,3,6-Tri benzyl-11b-hydroxy-2,4,7-tri oxodecahydro-2H-pyrrolo [2',1':3,4]pyridazine[1,2-a] [1,3,5]triazine-9-carboxylic acid [Compound 4C] |  | C (less than 1%)
25 | (6S,9R,11aS,11bS)-1,3,6-Tribenzyl-11b-hydroxy-N-(naphthalen-2-ylmethyl)-2,4 ,7-trioxo-2H-pyrrolo [2',1':3,4]pyrazino [1,2-a][1,3,5]triazine-9-carboxamide [Compound 4D] |  | A (a CPE inhibition effect of 5% or more)
26 | (6S,9R,11aS,11bS)-1,3-Dibenzyl-11b-hydroxy-6-isopropyl-N-(naphthalen-2^-ylmethyl)-2,4,7-trioxodecahydro-2H-pyrrolo[2',1':3,4]pyrazino[ 1,2-a][1,3,5]triazine-9-carboxamide [Compound 26D] |  | A (a CPE inhibition effect of 5% or more)
27 | (6S,11a8)-1,3,6-tribenzyl-11b-hydroxy-11a-methylhexahydro-2H-pyrrolo[2',1':3,4]pyrazino [1,2-a][1,3,5]triazine-2,4,7(3H,6 H)-trione [Compound 12A] |  | B (a CPE inhibition effect of less than 5% but 1% or more)
28 | (6S,13aS)-1,3,6-tribenzyl-13b-hydroxy-1,13,13a,13b-tetrahydro-2H-[1,3,5] triazino[2',1':3,4]pyraz ino[1,2-a]indole-2,4.7(3H,6H)-trione [Compound 24A] |  | C (less than 1%)
